Results as given in patent US20250387270A1, “DEVICES AND METHODS FOR WOUND TREATMENT” (APPLIED TISSUE TECHNOLOGIES LLC, priority 2016, published 2025).

Tests used:
common bacteria = conditions: typical value for common bacteria; cited from earlier work
[1] = Stability of antibiotic drug activity in 0.5% (agarose) hydrogel over time; type: physicochemical; conditions: antibiotic in 0.5% (agarose) hydrogel, compare with original concentration
Description: According to Table 1, gel-therapeutic agent preparations comprising an antibiotic and a 0.5% (agarose) hydrogel may be stable for up to one week. Drugs dissolve passively into the gel and stay stable over time. In some embodiments, the gel-therapeutic agent preparation may further comprise saline. The gel may be biocompatible, meaning that it is structurally similar to the extracellular matrix in tissues. The gel may be flowable, allowing either for, for example, casting into a mold or injection via needle through a port. The loading of the […] agent preparation in the device may allow consistent and uniform contact with the skin even with patient movement, maintaining continuous delivery of the therapeutic agent to the underlying tissue. The gel-therapeutic agent preparation may prevent loss of the therapeutic agent in the event of a minor leak in the adhesive of the device.

In the case of `CN[C@H](CC(C)C)C(=O)N[C@H]1C(=O)N[C@@H](CC(N)=O)C(=O)N[C@H]2C(=O)N[C@H]3C(=O)N[C@H](C(=O)N[C@H](C(=O)O)c4cc(O)cc(O)c4-c4cc3ccc4O)[C@H](O)c3ccc(c(Cl)c3)Oc3cc2cc(c3O[C@@H]2O[C@H](CO)[C@@H](O)[C@H](O)[C@H]2O[C@H]2C[C@](C)(N)[C@H](O)[C@H](C)O2)Oc2ccc(cc2Cl)[C@H]1O` [Vancomicin], the MIC (common bacteria) is given as “around 2 micrograms per ml”.
For Gentamicin, the MIC (common bacteria) is given as “around 2 micrograms per ml”, the “Drug activity, 3 days” value ([1]; 3 days) is given as 2.41 µg/mL and the “Drug activity, 7 days” value ([1]; 7 days) is given as 2.04 µg/mL.
